Source: patent US5736559A, “Biphenyl derivatives, pharmaceutical compositions containing these compounds and processes for preparing them” (Karl Thomae GmbH, priority 1991, dated 1998)
Structures can show the parent of a compound that is named as a salt.

How the values were obtained:
[1] = test system: thrombocyte (platelet) aggregation; assay: Antithrombotic activity: collagen-induced thrombocyte aggregation in platelet rich plasma (Born and Cross); type: cell-based; conditions: Homo sapiens, platelet rich plasma from healthy test subjects, 10 minutes at 37° C. preincubation, 50% change in optical density, read-out: Inhibition of platelet aggregation EC50
Method: 2. Antithrombotic activity Method: Thrombocyte aggregation is measured in platelet rich plasma from healthy test subjects using the Born and Cross method (J. Physiol. 170, 397 (1964)). In order to inhibit coagulation the blood is mixed with sodium citrate 3.14% in a ratio by volume of 1:10. Collagen-induced aggregation: The course of the decrease in optical density of the platelet suspension is photometrically measured and recorded after the addition of the substance which triggers aggregation. The rate of aggregation is deduced from the gradient angle of the density curve. The point on the curve where there is maximum transmittance is used to calculate the optical density. The quantity of collagen used is as little as possible but sufficient to give an irreversible reaction curve. Standard commercial collagen produced by Hormonchemie of Munich is used. Before the addition of the collagen the plasma is incubated for 10 minutes at 37° C. with the substance. From the measurements obtained, an EC50 is determined graphically, relating to a 50% change in optical density in terms of the inhibition of aggregation.

[2] = target: Fibrinogen binding to human thrombocytes; assay: Fibrinogen binding to human thrombocytes; conditions: 125I fibrinogen; gel-filtered human platelets; ADP; 20 minutes at ambient temperature; read-out: Fibrinogen binding test IC50
Method: Fibrinogen binding to human thrombocytes The blood obtained by puncturing an antecubital vein is anticoagulated with trisodium citrate (final concentration: 13 mM) and centrifuged for 10 minutes at 170 xg. The supernatant platelet-rich plasma is poured onto a Sepharose 2B column (Pharmacia) and eluted with a solution of 90 mM common salt, 14 mM trisodium citrate, 5 mM glucose and 50 mM Tris(hydroxymethyl)aminomethane, adjusted to pH 7.4. The gel-filtered platelets (GFP) appearing before the plasma proteins are used for the binding experiments. 50 μl of a 60 mM calcium chloride solution, 50 μl of a 0.6 mM adenosine diphosphate solution, 100 μl of substance solution or solvent and 50 μl of fibrinogen solution (containing 3 μg of ^125 I fibrinogen) are added to 750 μl of GFP and incubated for 20 minutes at ambient temperature. The non-specific binding is determined in the presence of 3 mg/ml of cold fibrinogen. 900 μl of the incubated material are carefully pipetted onto 250 μl of silicon oil (AP 38: AR 20, 1:2 v/v, Wacker Chemie) in Eppendorf tubes and centrifuged for 2 minutes at 10,000 xg. The aqueous supernatant and some of the oil are drawn off, the tips of the tubes are cut off together with the platelet pellet and the quantity of bound fibrinogen is determined in a gamma counter. The concentration of substance which brings about a 50% inhibition in fibrinogen binding is determined from a series of concentrations and is given as the IC50 value.

Structure (SMILES) | IC50 [2] [µM] | EC50 [1] [µM]
CN(C(=O)c1ccc(-c2ccc(C(=N)N)cc2)cc1)C1CCC(C(=O)O)CC1 (centres unmarked) [1(94), 4-amidino-4'-[N-(4-carboxycyclohexyl)-N-methyl-aminocarbonyl]biphenyl] |  | 0.04
COC(=O)CC1CCCN(C(=O)Cc2ccc(-c3ccc(C(=N)N)cc3)cc2)C1 (centres unmarked) [6(58), 4-amidino-4'-[(3-methoxycarbonylmethylpiperidino)-carbonylmethyl]biphenyl hydrochloride] | 34 | 23
N=C(N)c1ccc(-c2ccc(C(=O)NC3CCC(C(=O)O)CC3)cc2)cc1 (centres unmarked) [1(80), 4-amidino-4'-[(4-carboxycyclohexyl)aminocarbonyl]-biphenyl hydrochloride] | 0.031 | 0.04
COC(=O)CC1CCN(C(=O)c2ccc(-c3ccc(C(=N)N)cc3)cc2)CC1 [6(50), 4-amidino-4'-[(4-methoxycarbonylmethylpiperidino)-carbonyl]biphenyl hydrochloride] | 0.34 | 0.89
N=C(N)c1ccc(-c2ccc(OCC(=O)N3CCC(C(=O)O)CC3)cc2)cc1 [1(6), 4-amidino-4'-[[(4-carboxypiperidino)carbonyl]-methyloxy]biphenyl] | 0.33 | 1.2
COC(=O)C1CCN(C(=O)c2ccc(-c3ccc(C(=N)N)cc3)cc2)CC1 [6(81), 4-amidino-4'-[(4-methoxycarbonylpiperidino)-carbonyl]biphenyl] | 25 | 34
N=C(N)c1ccc(-c2ccc(C(=O)N3CCN(CC(=O)O)CC3)cc2)cc1 [1(67), 4-amidino-4'-[(4-carboxymethylpiperazino)-carbonyl]biphenyl hydrochloride] | 0.18 | 0.35
N=C(N)c1ccc(-c2ccc(OCC(=O)N3CCCC(C(=O)O)C3)cc2)cc1 (centres unmarked) [1(7), 4-amidino-4'-[[(3-carboxypiperidino)carbonyl]-methyloxy]biphenyl] | 1.9 | 3.8
COC(=O)C1CCN(C(=O)Cc2ccc(-c3ccc(C(=N)N)cc3)cc2)CC1 [6(56), 4-amidino-4'-[(4-methoxycarbonylpiperidino)-carbonylmethyl]biphenyl hydrochloride] | 5.9 | 4.9
COC(=O)C1CCN(C(=O)COc2ccc(-c3ccc(C(=N)N)cc3)cc2)CC1 [6(48), 4-amidino-4'-[[(4-methoxycarbonylpiperidino)-carbonyl]methyloxy]biphenyl hydrochloride] | 25 | 0.59
COC(=O)CC1CCCN(C(=O)c2ccc(-c3ccc(C(=N)N)cc3)cc2)C1 (centres unmarked) [6(52), 4-amidino-4'-[(3-methoxycarbonylmethylpiperidino)-carbonyl]biphenyl hydrochloride] | 16 | 38
COC(=O)C1CCC(N(C)C(=O)c2ccc(-c3ccc(C(=N)N)cc3)cc2)CC1 (centres unmarked) [6(98), 4-amidino-4'-[N-(4-methoxycarbonylcyclohexyl)-N-methylaminocarbonyl]biphenyl hydrochloride] |  | 0.37
COC(=O)CCN1CCN(C(=O)c2ccc(-c3ccc(C(=N)N)cc3)cc2)CC1 [6(75), 4-amidino-4'-[[(4-(2-methoxycarbonylethyl)-piperazino]carbonyl]biphenyldi hydrochloride] | 27 | 3.2
N=C(N)c1ccc(-c2ccc(C(=O)N3CCCC(CC(=O)O)C3)cc2)cc1 (centres unmarked) [1(41), 4-amidino-4'-[(3-carboxymethylpiperidino)-carbonyl]biphenyl hydrochloride] | 0.52 | 2.6
N=C(N)c1ccc(-c2ccc(C(=O)N3CCC(C(=O)O)CC3)cc2)cc1 [1(74), 4-amidino-4'-[(4-carboxypiperidino)carbonyl]-biphenyl hydrochloride] | 2.7 | 10.7
N=C(N)c1ccc(-c2ccc(C(=O)N3CCN(CCC(=O)O)CC3)cc2)cc1 [1(68), 4-amidino-4'-[[4-(2-carboxyethyl)piperazino]-carbonyl]biphenyl dihydrochloride] | 0.56 | 3.4
COC(=O)CCCCCOc1ccc(-c2ccc(C(=N)N)cc2)cc1 [Example 6, Di-[4-Amidino-4'-(5-methoxycarbonylpentyloxy)biphenyl]dihydrogencarbonate] | 0.57 | 2.6
CCOC(=O)CC1CCN(C(=O)c2ccc(-c3ccc(C(=N)NC(=O)OCC)cc3)cc2)CC1 [8(7), 4-(N-ethoxycarbonylamidino)-4'-[(4-ethoxycarbonyl-methylpiperidino)carbonyl]biphenyl] |  | > 10

Now from value to compound, other results behind:

IC50 [2] [µM] | Structure (SMILES) | EC50 [1] [µM]
1.8 | N=C(N)c1ccc(-c2ccc(OCC(=O)NCC(=O)O)cc2)cc1 [1(3), 4-amidino-4'-[[(carboxymethylamino)carbonyl]-methoxy]-biphenyl] | 13
0.35 | N=C(N)c1ccc(-c2ccc(OCC(=O)NCCC(=O)O)cc2)cc1 [1(4), 4-amidino-4'-[[(2-carboxyethyl)aminocarbonyl]-methyloxy]biphenyl] | 1.7
0.21 | N=C(N)c1ccc(-c2ccc(OCCCCCC(=O)O)cc2)cc1 [Example 2, 4-Amidino-4'-(5-carboxypentyloxy)biphenyl hydrochloride] | 10
65 | N=C(N)c1ccc(-c2ccc(CC(=O)Nc3cccc(CC(=O)O)c3)cc2)cc1 [1(5), 4-amidino-4'-[[(3-carboxymethylphenyl)-aminocarbonyl]methyl]biphenyl] | > 100
0.22 | N=C(N)c1ccc(-c2ccc(C(=O)NCCCCC(=O)O)cc2)cc1 [1(65), 4-amidino-4'-[(4-carboxybutyl)aminocarbonyl]-biphenyl hydrochloride] | 2.4
18 | COC(=O)CCNC(=O)COc1ccc(-c2ccc(C(=N)N)cc2)cc1 [6(3), 4-amidino-4'-[[(2-methoxycarbonylethyl)-aminocarbonyl]methyloxy]biphenyl h ydrochloride] | 17
4.9 | COC(=O)CCc1cccc(NC(=O)Cc2ccc(-c3ccc(C(=N)N)cc3)cc2)c1 [6(47), 4-amidino-4'-[[[3-(2-methoxycarbonylethyl)phenyl]-aminocarbonyl]methyl]biphenyl hydrochloride] | 42
3.1 | N=C(N)c1ccc(-c2ccc(NS(=O)(=O)NCCC(=O)O)cc2)cc1 [1(69), 4-amidino-4'-[(2-carboxyethyl)aminosulphonyl-amino]biphenyl] | 12
19 | COC(=O)Cc1cccc(NC(=O)Cc2ccc(-c3ccc(C(=N)N)cc3)cc2)c1 [6(46), 4-amidino-4'-[[[3-(methoxycarbonylmethyl)phenyl]-aminocarbonyl]methyl]biphenyl hydrochloride] | 82
0.046 | N=C(N)c1ccc(-c2ccc(OCCCCC(=O)O)cc2)cc1 [2(2), 4-amidino-4'-(4-carboxybutyloxy)biphenyl] | 45
0.47 | N=C(N)c1ccc(-c2ccc(CC(=O)N3CCCC(CC(=O)O)C3)cc2)cc1 (centres unmarked) [1(47), 4-amidino-4'-[(3-carboxymethylpiperidino)-carbonylmethyl]biphenyl hydrochloride] | 2.7
> 10 | N=C(N)c1ccc(-c2ccc(OCCCC(=O)O)cc2)cc1 [2(1), 4-amidino-4'-(3-carboxypropyloxy)biphenyl] | 56
0.29 | N=C(N)c1ccc(-c2ccc(CC(=O)NCCC(=O)O)cc2)cc1 [Example 1, 4-Amidino-4'-[[(2-carboxyethyl)aminocarbonyl]methyl]-biphenyl] | 1.1
5.7 | N=C(N)c1ccc(-c2ccc(C(=O)NCC(N)=O)cc2)cc1 [6(86), 4-amidino-4'-(aminocarbonylmethylaminocarbonyl)-biphenyl hydrochloride] | 21
0.22 | N=C(N)c1ccc(-c2ccc(CC(=O)N3CCC(C(=O)O)CC3)cc2)cc1 [1(45), 4-amidino-4'-[(4-carboxypiperidino)-carbonylmethyl]biphenyl hydrochloride] | 2
0.12 | N=C(N)c1ccc(-c2ccc(C(=O)NCCCC(=O)O)cc2)cc1 [1(2), 4-amidino-4'-[(3-carboxypropyl)aminocarbonyl]-biphenyl] | 7
